Laboratory results reported in patent publication US12649748B2, “Wee1 inhibitor and use thereof” (JIANGSU TASLY DIYI PHARMACEUTICAL CO., LTD., priority 2021, dated 2026).
Converted amounts (≈) assume the structure as drawn. Like-named read-outs stand apart in the source and are kept apart here.

What was measured:
[1] = molecular target: T1, Wee1 protein (Homo sapiens, UniProt P30291); test: Binding of compound to Wee1 protein and Tracer 178 by TR-FRET; settings: inhibitory activity against Wee1 kinase, read-out: IC50 measured value
T1 construct: purchased Thermo Fisher PR7373A
T1 sequence (P30291 whole entry): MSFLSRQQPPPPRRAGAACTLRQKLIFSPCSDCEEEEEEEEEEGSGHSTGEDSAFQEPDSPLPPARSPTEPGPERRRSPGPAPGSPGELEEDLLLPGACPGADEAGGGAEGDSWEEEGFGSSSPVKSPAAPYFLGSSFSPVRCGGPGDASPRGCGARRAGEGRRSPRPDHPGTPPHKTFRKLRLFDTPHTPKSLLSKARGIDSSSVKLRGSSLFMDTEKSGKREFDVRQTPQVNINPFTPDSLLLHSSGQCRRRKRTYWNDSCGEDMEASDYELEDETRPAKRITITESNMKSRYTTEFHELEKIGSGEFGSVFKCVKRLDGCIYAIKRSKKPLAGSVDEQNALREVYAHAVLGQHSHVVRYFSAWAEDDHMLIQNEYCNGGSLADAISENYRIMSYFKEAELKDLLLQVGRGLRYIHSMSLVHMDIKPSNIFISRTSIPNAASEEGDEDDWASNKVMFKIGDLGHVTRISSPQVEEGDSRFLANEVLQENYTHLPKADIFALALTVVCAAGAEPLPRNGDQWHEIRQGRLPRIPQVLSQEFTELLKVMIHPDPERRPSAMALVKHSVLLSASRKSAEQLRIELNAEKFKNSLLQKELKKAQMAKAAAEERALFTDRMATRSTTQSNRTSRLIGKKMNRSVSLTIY
Experimental: First, solutions of the compounds in different concentration gradients were prepared. […] DMSO was added as a positive control (maximal signal control) and a negative control (minimal signal control) and a final level of 0.25% DMSO was ensured in each reaction well.
WEE1 (Thermo Fisher, Cat #PR7373A) protein in buffer (50 mM Hepes pH 7.5, 10 mM MgCl2, 1 mM EGTA, 0.01% Brij-35) at 15 nM) in different concentrations of compound, and Tracer 178 (Invitrogen, PV5593) and MAb Anti-GST-Eu crypate (Cisbio, 61GSTKLA) were added to 384-well plates (Corning, cat #3574), centrifuged at 1000 rpm for 1 min and the 384-well plates were incubated in a constant temperature shaker for 60 min at 25° C. and 300 rpm. Tracer 178 and MAb Anti-GST-Eu crypate were prepared in buffer (50 mM HEPES pH 7.5, 10 mM MgCl2, 1 mM EGTA, 0.01% Brij-35) with a final reaction concentration of 50 nM for Tracer 178 and a final concentration of 2 nM for MAb Anti-GST-Eu crypate, where the negative control (minimal signal control) used an equal amount of buffer in place of the protein solution.
After incubation, readings were performed using BMG PHERAStar (excitation light at 337 nm and emission light at wavelength values of 620 nm and 665 nm to read the fluorescence signal values). […] The IC50 for inhibition of enzyme activity by the compounds was then calculated using GraphPad Prism 6 and fitted with a log (inhibitor) vs. response-Variable slope mode. The fitting equation was: Y=Bottom+(Top-Bottom)/(1+10^((Log IC50−X)*HillSlope)), where Y represents the percentage of residual enzyme activity known and X represents the known concentration of compound after the logarithm.

[2] = test system: H1299 cells; test: Anti-proliferative effect by Cell Titer-Glo, H1299; format: cell-based; settings: Homo sapiens, NCI-H1299, 72 h, read-out: IC50 measured value H1299
Experimental: (§1) Compound solutions of different concentration gradients were prepared. DMSO was dissolved to a concentration of 10 mM test compound and 10 mM reference compound AZD1775, and the compounds were serially diluted in culture medium for a total of 9 dose points, with 2 parallel replicates set at each concentration. The cell growth group without compound was used as a positive control (maximum signal control) and the medium was used as a negative control (minimum signal control), while ensuring that the final level of DMSO in each reaction well was 0.2%. After removing the medium from the 384-well plate, 25 ul of the configured compound at different concentrations was transferred into the well plate and the compound and cells were incubated in the cell incubator at 37° C. with 5% CO2 for 3 days.
(§2) The 384-well plates were removed from the cell incubator and allowed to equilibrate for 1 h to room temperature. 25 ul of Cell Titer-Glo assay was added to each well, lysed on a shaker for 2 min and then read out (Luminescence) using a BMG PHERAStar after 10 min incubation. Calculate the inhibition rate from the luminescence signal: first calculate the average of the positive control (maximum signal control) and the negative control (minimum signal control).
(§3) [formula] to calculate the rate of inhibition of the cells by different concentrations of the compounds. The IC50 of the compound on cell activity inhibition was calculated by fitting a log(inhibitor) vs. response-Variable slope model to GraphPad Prism 6. The fitted equation was: Y=Bottom+(Top−Bottom)/(1+10^((Log IC50−X)*HillSlope)), where Y represents the rate of inhibition and X represents the concentration of the known compound after Log.

[3] = Solubility test; format: physicochemical; settings: aqueous buffer, thermodynamic from solid; buffer solution, shaken at constant temperature 24 h
Experimental: The compound was placed in a buffer solution and shaken at constant temperature for 24 h. […] Chromatographic conditions: C18 column, mobile phase A: 0.02 M potassium dihydrogen phosphate:acetonitrile=90:10, mobile phase B: acetonitrile; V: 1.0 ml/min, T: 35° C., λ: 210 nm.

[4] = test system: MIA Paca-2 cells; test: Anti-proliferative effect by Cell Titer-Glo, MIA Paca-2; format: cell-based; settings: Homo sapiens, read-out: IC50 measured value MIA Paca-2
Experimental: as §1, §2, §3

[5] = Metabolic stability of liver microsomes in vitro (mouse); format: in vitro ADME; settings: read-out: Mouse T1/2/min
Experimental: (§4) Microsomes were taken out from the −80° C. refrigerator, rapidly melted in a 37° C. water bath and placed on ice until ready to use. The test article was diluted with DMSO to prepare a 10 mM stock solution, and then diluted with acetonitrile to a 0.5 mM secondary stock solution. The microsomes were diluted to 0.75 mg/ml using Buffer C; the secondary stock solution was then added to a final concentration of 1.5 μM of compound as working solution, based on n=2, 5 time points, 350 μL of each compound was prepared and placed on ice prior to use. NADPH was diluted with Buffer C to a working solution of 6 mM for the starter solution. An acetonitrile solution containing an internal standard was prepared as the precipitant, and Verapamil-HCl was chosen as the internal standard at a concentration of 4 ng/ml.
(§5) A round-bottom well plate was taken, noted as the reaction plate, and the prepared working solution for each compound was dispensed into the well plate according to the number of replicates and time points (0 h samples are also added to the reaction plate), 30 μL/well; the plate was incubated at 37° C. for 10 min. A separate plate with pointed bottom wells, noted as a precipitation plate, was added with 135 μL precipitant per well; 0 h samples were transferred to the plate after 10 min incubation and 15 μL of starter solution was added; the plate was placed on ice before centrifugation.
(§6) The diluted starter solution was added in sufficient quantity to the dispensing plate to facilitate the multichannel pipette aspiration operation.
(§7) The reaction was carried out on a warm incubation shaker and 15 μL of starter solution/sample is added to the plate using a multichannel pipette. The reaction was mixed with a slight shake to initiate the reaction, which was accurately timed and recorded using a timer;
(§8) After the reaction time had elapsed, all the solution in the plate was aspirated using the multichannel pipette and added to the precipitation plate to terminate the reaction at that point in time. After all reactions had been terminated, the plates were shaken for ten minutes on a plate shaker at 600 rpm to precipitate the protein. The plate was centrifuged at 4° C. for 15 minutes at maximum rpm. 80 μL of supernatant was taken, 320 μL of pure water was added and mixed for LC-MS analysis.

[6] = Metabolic stability of liver microsomes in vitro (human); format: in vitro ADME; settings: read-out: Human T1/2/min
Experimental: as §4, §5, §6, §7, §8

[7] = Compound pharmacokinetics in mice; format: in vivo; settings: male ICR mice, oral gavage 10 mg/kg, plasma; for Cmax / AUC(0-inf) / half-life: mouse; for AUC(0-inf): read-out: AUCinf—Pred; for half-life: read-out: T½ (converted)
Experimental: To investigate the pharmacokinetic properties of the compound in mice, six male ICR mice were given the compound by oral gavage (10 mg/kg) at the corresponding dose, and each route of administration was divided into two groups: group A mice had anticoagulated whole blood collected at 5 min, 30 min, 2 h and 8 h after administration, while group B mice had anticoagulated whole blood collected at 15 min, 1 h, 4 h and 24 h after administration, isolated plasma;
The plasma concentrations of the compounds were determined by LC-MS using a standard curve calibration method. Plasma concentration-time data were fitted to pharmacokinetic parameters using Winnolin 5.2 software.

[8] = Membrane permeability study (Caco-2); format: in vitro ADME; settings: human; for efflux ratio at 90 min, 10 µM: Caco-2, pH 7.4, read-out: Efflux Ration; for Papp A→B at 90 min, 10 µM / Papp B→A at 90 min, 10 µM: pH 7.4, Caco-2, 10 μM; for Papp A→B at 90 min, 10 µM: A to B; for Papp B→A at 90 min, 10 µM: B to A
Experimental: Caco-2 cells were purchased from the […] (Rockville, MD). The cell culture medium was modified Eagle's medium (MEM) containing 10% inactivated fetal bovine serum and 1% non-essential amino acids. Cells were inoculated on polycarbonate filter membranes (Cat no. 3396) and incubated at 37° C. in a 5% CO2 incubator.
The cells were incubated for 21-28 days after inoculation for transport experiments and the apparent permeability (Papp) of Lucifer Yellow was used to characterize and verify the compactness of the cell monolayer. A stock solution of 10 mM was prepared by dissolving the compound in DMSO and diluted using Hanks Balanced Salt Solution (HBSS, Invitrogen, Cat #14025-092) containing 25 mM HEPES (pH 7.4) to obtain the working solution. A 10 μM working solution of the compound to be tested was added to the apical side and basolateral side of Caco-2 and incubated at 37° C. for 90 min. After the incubation, dilute the samples on the apical side and basolateral side, and the concentrations of compounds on the apical and basolateral sides were detected by LC-MS/MS, and the concentrations of the compounds were quantified by standard curve.

[9] = H1299 cells, 3 days, Cell Titer-Glo
[10] = 72 h, MIA Paca-2 cells, 3 days, Cell Titer-Glo

Row | SMILES | IC50 [1] [nM] | IC50 [2, 9] [nM] | IC50 [4, 10] [nM] | IC50 [2] [nM] | further results
1 | CN1CCN(c2ccc(Nc3ncc4cnn(-c5cccc(C6(C#N)CC6)n5)c4n3)cc2)CC1 [Compound 3] | 10 to 100 |  |  | 1000 to 5000 | solubility at 24 h [3]: 60 µg/mL (≈ 133 µM)
2 | CN1CCC(c2ccc(Nc3ncc4cnn(-c5cccc(N=S(C)(C)=O)n5)c4n3)cc2)CC1 [Compound 18] | 1 to 10 | 1000 to 5000 | 100 to 1000 |  | half-life at 1 µM [5]: > 120 min; half-life at 1 µM [6]: > 120 min
3 | CN1CCN(c2ccc(Nc3ncc4cnn(-c5ccnc(N=S(C)(C)=O)c5)c4n3)cc2)CC1 [Compound 28] | 100 to 1000 | 5000 to 20000 | 1000 to 5000 |  | Cl_pred [7]: 230 mL/min/kg; Cmax [7]: 337 ng/mL; AUC(0-inf) [7]: 743 ng·h/mL; half-life [7]: 107 min
4 | CCC1(O)CCc2ccc(-n3ncc4cnc(Nc5ccc(N6CCN(C)CC6)cc5)nc43)nc21 (stereo not drawn) [Compound 57] | 100 to 1000 | 1000 to 5000 | 100 to 1000 |  | 
5 | CCN1C(=O)COc2ccc(-n3ncc4cnc(Nc5ccc(N6CCN(C)CC6)cc5)nc43)cc21 [Compound 59] | 10 to 100 |  |  | 100 to 1000 | IC50 ([4]; MIA PaCa-2, 72 h): 100 to 1000 nM
6 | CCn1ncc2ccc(-n3ncc4cnc(Nc5ccc(N6CCN(C)CC6)cc5)nc43)nc21 [Compound 60] | 10 to 100 |  |  | 1000 to 5000 | IC50 ([4]; MIA PaCa-2, 72 h): 100 to 1000 nM
7 | CCN1C(=O)C2(CC2)c2ccc(-n3ncc4cnc(Nc5ccc(N6CCN(C)CC6)cc5)nc43)cc21 [Compound 61] | 100 to 1000 |  |  | 5000 to 20000 | IC50 ([4]; MIA PaCa-2, 72 h): 1000 to 5000 nM

Further lines, with some results ahead:

Row | IC50 [1] [nM] | IC50 [2, 9] [nM] | IC50 [4, 10] [nM] | SMILES | IC50 [2] [nM] | further results
8 | 10 to 100 | 100 to 1000 | 100 to 1000 | CN1CCN(c2ccc(Nc3ncc4cnn(-c5ccc6c(c5)C(C)(O)CO6)c4n3)cc2)CC1 (stereo not drawn) [Compound 40] |  | half-life at 1 µM [5]: 20.4 min; efflux ratio at 90 min, 10 µM [8]: 0.89; Papp A→B at 90 min, 10 µM [8]: 18.6 ×10⁻⁶ cm/s; Papp B→A at 90 min, 10 µM [8]: 16.6 ×10⁻⁶ cm/s; Cl_pred [7]: 405 mL/min/kg; Cmax [7]: 377 ng/mL; AUC(0-inf) [7]: 493 ng·h/mL; half-life [7]: 42 min
9 | 10 to 100 | 100 to 1000 | 100 to 1000 | CCn1cnc2ccc(-n3ncc4cnc(Nc5ccc(N6CCN(C)CC6)cc5)nc43)cc21 [Compound 45] |  | half-life at 1 µM [5]: 10.3 min; efflux ratio at 90 min, 10 µM [8]: 1.79; Papp A→B at 90 min, 10 µM [8]: 4.09 ×10⁻⁶ cm/s; Papp B→A at 90 min, 10 µM [8]: 7.34 ×10⁻⁶ cm/s
10 | 10 to 100 | < 100 | 100 to 1000 | Cc1nc2ccc(-n3ncc4cnc(Nc5ccc(N6CCN(C)CC6)cc5)nc43)cc2n1C [Compound 58] |  | 
11 | 100 to 1000 | 5000 to 20000 | 1000 to 5000 | CN1CCN(c2ccc(Nc3ncc4cnn(-c5ccc6nncn6c5)c4n3)cc2)CC1 [Compound 62] |  | 
